{
  "source": "patent US8299031B2",
  "about": "“Human semen enhancer of viral infection peptides (SEVI) and their use” (Viro Pharmaceuticals GmbH & Co. KG, priority 2006, dated 2012)",
  "key": {"HIV-1 NL4-3 [1]": {"test_system": "HIV-1 NL4-3", "type": "cell-based", "conditions": "for luciferase activities increased compared to control cells containing no SEVI: 50 μg/ml peptide; for effect on HIV-1 infection (luciferase activities relative to no peptide): peptides 5 mg/ml shaken 20 h 37 °C, CEMX174 5.25 M7, 30 pg p24 HIV-1 NL4-3, 20 hours", "method": "To analyze the effect of synthesized SEVI peptides on HIV infection, samples were resuspended in FBS free DMEM to yield a stock solution of 5 mg/ml and shacked for 20 h at 37° C. at 1400 rpm (rotations per minute) resulting in a turbid solution.\nAll peptides indicated in FIG. 7B were dissolved and incubated under the same conditions. […] In the presence of 50 μg/ml peptide, luciferase activities were increased about 30 fold compared to those from control cells containing no SEVI (FIG. 7A).\nFIG. 7. Several synthetic PAP fragments stimulate HIV-1 infection. A) Lyophilized peptides were resuspended in DMEM without FBS and incubated for 20 h at 37° C. at 1,400 rpm using a thermo mixer (Eppendorf). […] After 20 h virus infection was detected using the Luciferase assay reagent (Promega). […] B) Shown are the peptide sequences analyzed."}, "HIV-2 ROD10": {"test_system": "HIV-2 ROD10", "type": "cell-based"}, "HIV-1 particles": {"test_system": "HIV-1 particles", "experiment": "Binding of viral particles to TZM-bl cells (cell-associated p24 ELISA)", "type": "cell-based", "conditions": "3 hs", "method": "To further assess how SEVI might enhance HIV-1 infection we incubated TZM-bl cells for 3 hs with viral particles in the presence or absence of fibrilar PAP(248-286). Thereafter, unbound virus was removed by extensive washing and the amount of cell-associated p24 antigen was determined by ELISA. SEVI increased binding of HIV-1 to the target cells up to 8-fold in a dose-dependent manner (FIG. 17B, left).\n(§1) FIG. 17. SEVI interacts with the HIV-1 particle and enhances its binding to the cell. A) Interaction of SEVI with HIV-1. SEVI was either preincubated with the virus stock in a small volume and subsequently added to the cells (□) or SEVI and the HIV-1 stocks were added separately to the cells (▪). The SEVI concentrations during incubation with the virus stocks are shown in the left panel and the concentrations relating to the total cell culture in the right panels. B) SEVI enhances binding of wildtype and Env-defective viral particles to the cells. u, uninfected cells. Data represent average values±s.d. (n=3)."}, "HIV-1 NL4-3 [2]": {"test_system": "HIV-1 NL4-3", "experiment": "HIV-1 replication in PBMC after low dose infection (p24 antigen ELISA)", "type": "cell-based", "conditions": "2 μg/ml SEVI"}, "SIVmac239": {"test_system": "SIVmac239", "type": "cell-based, SIV", "conditions": "TZM-bl"}, "HIV-1 NL4-3 [3]": {"test_system": "HIV-1 NL4-3", "experiment": "HIV-1 infection rate of CEMX174 5.25 M7 cells (GFP UV microscopy and luciferase)", "type": "cell-based", "conditions": "CEMX174 5.25 M7, 0.3 ng p24, 2 days", "method": "The rate of virus infection was detected after 2 days by performing first UV microscopy (FIG. 10A) and thereafter by measuring luciferase activities of cell lysates of the same samples (FIG. 10B). […] After infection of control samples containing no peptide, 2.6% of the cells expressed GFP corresponding to luciferase activities of 44,457 RLU/s (FIG. 10). In the presence of 2 μg/ml SEVI the average infection rates were nearly doubled to 4.6% (66,327 RLU/s). At the highest concentration of 50 μg/ml more than 99% of the cells became infected by HIV-1. Median luciferase activities in those samples were 1,701,156 RLU/s, corresponding to a 38 fold increase of infection (1,701,156 RLU/s divided by 44,457 RLU/s of control cells).\nFIG. 10. […] The rate of virus infection was detected after 2 days by performing UV microscopy (A) or by measuring luciferase activity of cellular lysates (B). RLU/s: relative light units per second."}, "HIV-1": {"test_system": "HIV-1", "experiment": "Preincubation of virus stock with SEVI and 50-fold dilution into cell culture", "type": "cell-based", "conditions": "diluted 50-fold", "method": "SEVI could bind to viral particles and increase their infectivity, or enhance the susceptibility of target cells to HIV-1 infection. To distinguish between these possibilities, we preincubated the virus stock with various concentrations of fibrilar PAP(248-286) for 5 min in a small volume and subsequently added the virus/SEVI mixture to the cell culture, thereby diluting it 50-fold. For comparison, SEVI was directly added to the cell culture and subsequently infected with the same viral dose. […] In relation to the final peptide concentration in the infected culture, viral infectivity was enhanced by 50-fold (FIG. 17A, right).\nas §1"}, "SIVcpz-tan 1": {"test_system": "SIVcpz-tan 1", "type": "cell-based, SIV", "conditions": "CEMX174 5.25 M7 cells"}, "SIVagm-tan 1": {"test_system": "SIVagm-tan 1", "type": "cell-based, SIV", "conditions": "TZM-bl"}, "TZM-bl cells": {"test_system": "TZM-bl cells", "experiment": "MTT cytotoxicity assay", "type": "cell-based", "conditions": "3 days, high concentrations of SEVI", "method": "The day after medium was replaced by 90 μl of fresh medium and SEVI [fibrilar […]] dilutions were added to a final volume of 100 μl. After 3 days 10 μl of a 5 mg/ml MTT (Sigma; # M2128) solution was added and cells were incubated for 4 h at 37° C. In living cells mitochondrial dehydrogenases […] the yellow MTT salt to blue formazan crystals (Schiff et al.; 1985). After dissolving the crystals in 1:1 Ethanol/DMSO, samples containing living cells appear blue whereas samples from dead cells are clear. Optical density (OD) was measured at 560/650 nm using a photometer (Molecular Devices).\nFIG. 9. SEVI has no effect in cell viability or endogenous LTR activity. […] After 3 days 10 μl of a 5 mg/ml MTT solution was added and cells were incubated for 4 h at 37° C. Thereafter formazan crystals were dissolved in 1:1 Ethanol/DMSO and OD was measured at 560/650 nm. […] B) Endogenous LTR activity: After 3 days incubation with peptides endogenous LTR activity was measured using the Gal Screen Kit. Shown are median β-galactosidase activities±SD derived from 6 samples. RLU/s: relative light units per second."}, "[4]": {"test_system": "NL4-3 V3 recombinant viruses and molecular HIV-1 clones", "conditions": "for infection more efficient than control cells without peptide: 0.4 μg/ml SEVI"}, "[5]": {"test_system": "HIV-1 NL4-3 (X4) and HIV-1 NL4-3 YU-2 (R5)", "experiment": "Infection of TZM-bl cells with subinfectious virus doses (Gal Screen)", "type": "cell-based", "conditions": "2 μg/ml SEVI or more, 0.1 and 0.6 pg p24 of X4 and R5 tropic HIV, 3 days"}},
  "note": "Read-outs that look alike come from different tables or passages of the source. Ends that are not written are not given here.",
  "data": [
    {"sequence": "GIHKQKEKSRLQGGVLVNEILNHMKRATQIPSYKKLIMY (Synthetic fragment of the PAP protein) [PAP(248-286)]", "values": [
      {"measurement": "luciferase activities increased compared to control cells containing no SEVI", "setting": "HIV-1 NL4-3 [1]", "value": "about 30 fold"},
      {"measurement": "effect on HIV-1 infection (luciferase activities relative to no peptide)", "setting": "HIV-1 NL4-3 [1]", "value": "dose dependently enhanced HIV-1 infection"},
      {"measurement": "increase of viral infection", "setting": "HIV-2 ROD10; 50 μg/ml SEVI, TZM-bl infected with 2 μl of HIV-2", "value": "two orders of magnitude"},
      {"measurement": "effect on infection rates of HIV-2", "setting": "HIV-2 ROD10; TZM-bl", "value": "dose dependently enhanced infection rates"},
      {"measurement": "binding of HIV-1 particles lacking Env", "setting": "HIV-1 particles", "value": "enhanced binding of HIV-1 particles lacking Env"},
      {"measurement": "increase of binding of HIV-1 to the target cells (cell-associated p24)", "setting": "HIV-1 particles; wildtype HIV-1, dose-dependent", "value": "up to 8 fold"},
      {"measurement": "virus replication (p24 antigen ELISA)", "setting": "HIV-1 NL4-3 [2]; PBMC infected with 1.2 and 0.12 pg", "value": "virus only replicated in samples containing SEVI"},
      {"measurement": "virus replication (p24 antigen ELISA)", "setting": "HIV-1 NL4-3 [2]; PBMC infected with 120 and 12 pg p24 antigen", "value": "replicated with faster kinetics and to higher levels than in control cells without peptide"},
      {"measurement": "effect on SIVmac infection", "setting": "SIVmac239", "value": "favoured"},
      {"measurement": "effect on NL4-3 infection", "setting": "HIV-1 NL4-3 [3]", "value": "dose dependently promoted NL4-3 infection"},
      {"measurement": "viral infectivity enhanced in relation to the final peptide concentration in the infected culture", "setting": "HIV-1; 5 min preincubation with virus stock", "value": 50, "unit": "fold"},
      {"measurement": "effect of diluting the HIV-1/SEVI mixture after preincubation", "setting": "HIV-1; 5 min preincubation", "value": "did not at all reduce the magnitude of SEVI-mediated infectivity enhancement"},
      {"measurement": "effect on SIVcpz infection", "setting": "SIVcpz-tan 1", "value": "favoured"},
      {"measurement": "effect on SIVagm infection", "setting": "SIVagm-tan 1", "value": "favoured"}
    ]},
    {"sequence": "HKQKEKSRLQGGVLVNEILNHMKRATQIPSYKKLIMY [PAP(250-286)]", "values": [
      {"measurement": "cell viability (MTT)", "setting": "TZM-bl cells", "value": "not affected"}
    ]},
    {"sequence": "KEKSRLQGGVLVNEILNHMKRATQIPSYKKLIMY (Synthetic fragment of the PAP protein) [PAP(253-286)]", "values": [
      {"measurement": "luciferase activities increased compared to control cells containing no SEVI", "setting": "HIV-1 NL4-3 [1]", "value": "about 30 fold"},
      {"measurement": "effect on HIV-1 infection (luciferase activities relative to no peptide)", "setting": "HIV-1 NL4-3 [1]", "value": "dose dependently enhanced HIV-1 infection"},
      {"measurement": "effect on NL4-3 infection", "setting": "HIV-1 NL4-3 [3]", "value": "dose dependently promoted NL4-3 infection"},
      {"measurement": "infection more efficient than control cells without peptide", "setting": "[4]; 93br025-9", "value": 1.9, "unit": "fold"},
      {"measurement": "infection more efficient than control cells without peptide", "setting": "[4]; HIV-1 LAI", "value": 2.7, "unit": "fold"},
      {"measurement": "maximum infectivity compared to infected controls without peptide", "setting": "[4]; higher concentrations, P51-S", "value": "3,045%"}
    ]},
    {"sequence": "KQKEKSRLQGGVLVNEILNHMKRATQIPSYKKLIMY (Synthetic fragment of the PAP protein) [PAP(251-286)]", "values": [
      {"measurement": "luciferase activities increased compared to control cells containing no SEVI", "setting": "HIV-1 NL4-3 [1]", "value": "about 30 fold"},
      {"measurement": "effect on HIV-1 infection (luciferase activities relative to no peptide)", "setting": "HIV-1 NL4-3 [1]", "value": "dose dependently enhanced HIV-1 infection"},
      {"measurement": "effect on NL4-3 infection", "setting": "HIV-1 NL4-3 [3]", "value": "dose dependently promoted NL4-3 infection"},
      {"measurement": "detection of infection (β-galactosidase activities)", "setting": "[5]", "value": "readily detectable"}
    ]},
    {"sequence": "QKEKSRLQGGVLVNEILNHMKRATQIPSYKKLIMY (Synthetic fragment of the PAP protein) [PAP(252-286)]", "values": [
      {"measurement": "luciferase activities increased compared to control cells containing no SEVI", "setting": "HIV-1 NL4-3 [1]", "value": "about 30 fold"},
      {"measurement": "effect on HIV-1 infection (luciferase activities relative to no peptide)", "setting": "HIV-1 NL4-3 [1]", "value": "dose dependently enhanced HIV-1 infection"}
    ]}
  ]
}
